Reference: patent publication US20110287045A1, “Enhanced immune response against infections” (priority 2010, published 2011)
Entries after “also recorded” stand apart in the source; their conditions may differ.

What was measured:
[1] = test system: platelets; experiment: Inhibitor pre-treatment before agonist-induced platelet activation (flow cytometry); type: cell-based; settings: for inhibition of CCL5-induced platelet activation / inhibition of Tat-induced platelet activation: pre-treatment 37° C. 30 minutes, SB328437 3 nM, EGTA 100 μM, PGE1 5 μM; for inhibition of CCL5-induced platelet activation: CCL5 10 μg/ml; for inhibition of Tat-induced platelet activation: Tat 20 ng/ml
Experimental: (§1) Gel-filtered human or mouse platelets were prepared from platelet-rich plasma obtained from blood collected in 0.38% sodium citrate via heart puncture. 1×10^7gel-filtered platelets were incubated under different stimulation conditions at 37° C. for 30 minutes. For in vitro platelet activation, Tat 20 ng/ml, CCL5 10 μg/ml, or control Ad18-66 20 ng/ml were used. To test the role of chemokine receptor CCR3, calcium flux and cAMP in Tat-induced platelet activation, CCR3 inhibitor SB328437 3 nM, calcium flux inhibitor EGTA 100 μM and prostaglandin E1 (PGE1, a cAMP elevator) 5 μM were used separately to treat platelets at 37° C. for 30 minutes before incubation with Tat, CCL5 or control as above. To test the role of β3 integrin, platelets from β3 integrin knock out mice were incubated with Tat, CCL5, thrombin, and control. Treated platelets were then stained with anti-CD154-FITC and anti-CD62P-PE antibody on ice for one hour. Fluorescent-labeled platelets were measured by flow cytometry (FACScan, Becton-Dickinson, Calif.).

[2] = target: integrin αVβ3 (Homo sapiens, UniProt P05106+P06756); settings: read-out: dissociation constants (Kd), integrin αVβ3; cited from earlier work
Sequence of integrin αVβ3 (P06756 31-889 limits assumed): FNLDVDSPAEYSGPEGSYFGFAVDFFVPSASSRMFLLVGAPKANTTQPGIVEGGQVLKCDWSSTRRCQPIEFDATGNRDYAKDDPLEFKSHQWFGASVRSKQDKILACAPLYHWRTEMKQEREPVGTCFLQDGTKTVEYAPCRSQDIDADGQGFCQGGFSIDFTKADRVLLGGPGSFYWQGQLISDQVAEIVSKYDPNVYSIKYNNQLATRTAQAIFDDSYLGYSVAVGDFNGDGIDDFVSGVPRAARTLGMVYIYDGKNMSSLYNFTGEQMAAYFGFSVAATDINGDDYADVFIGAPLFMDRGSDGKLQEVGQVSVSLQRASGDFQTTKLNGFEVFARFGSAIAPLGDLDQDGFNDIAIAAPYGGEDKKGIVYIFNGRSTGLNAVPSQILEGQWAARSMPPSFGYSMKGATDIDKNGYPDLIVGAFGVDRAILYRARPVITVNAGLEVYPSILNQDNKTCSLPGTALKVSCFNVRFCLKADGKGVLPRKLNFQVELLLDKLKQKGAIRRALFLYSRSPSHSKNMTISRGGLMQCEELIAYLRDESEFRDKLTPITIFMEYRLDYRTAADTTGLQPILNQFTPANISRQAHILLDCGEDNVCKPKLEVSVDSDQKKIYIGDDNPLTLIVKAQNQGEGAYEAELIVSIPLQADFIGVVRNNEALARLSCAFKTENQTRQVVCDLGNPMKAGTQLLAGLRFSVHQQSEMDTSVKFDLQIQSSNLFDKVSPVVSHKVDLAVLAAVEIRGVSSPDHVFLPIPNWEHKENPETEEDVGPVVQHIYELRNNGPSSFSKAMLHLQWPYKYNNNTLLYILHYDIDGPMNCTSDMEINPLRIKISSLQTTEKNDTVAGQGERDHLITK
Sequence of integrin αVβ3 (P06756 891-1048 partner limits assumed): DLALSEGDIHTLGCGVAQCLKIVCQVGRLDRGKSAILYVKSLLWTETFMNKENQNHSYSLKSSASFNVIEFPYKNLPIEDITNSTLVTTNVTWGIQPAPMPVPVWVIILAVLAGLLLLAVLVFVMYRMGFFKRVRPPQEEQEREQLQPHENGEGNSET
Sequence of integrin αVβ3 (P05106 27-788): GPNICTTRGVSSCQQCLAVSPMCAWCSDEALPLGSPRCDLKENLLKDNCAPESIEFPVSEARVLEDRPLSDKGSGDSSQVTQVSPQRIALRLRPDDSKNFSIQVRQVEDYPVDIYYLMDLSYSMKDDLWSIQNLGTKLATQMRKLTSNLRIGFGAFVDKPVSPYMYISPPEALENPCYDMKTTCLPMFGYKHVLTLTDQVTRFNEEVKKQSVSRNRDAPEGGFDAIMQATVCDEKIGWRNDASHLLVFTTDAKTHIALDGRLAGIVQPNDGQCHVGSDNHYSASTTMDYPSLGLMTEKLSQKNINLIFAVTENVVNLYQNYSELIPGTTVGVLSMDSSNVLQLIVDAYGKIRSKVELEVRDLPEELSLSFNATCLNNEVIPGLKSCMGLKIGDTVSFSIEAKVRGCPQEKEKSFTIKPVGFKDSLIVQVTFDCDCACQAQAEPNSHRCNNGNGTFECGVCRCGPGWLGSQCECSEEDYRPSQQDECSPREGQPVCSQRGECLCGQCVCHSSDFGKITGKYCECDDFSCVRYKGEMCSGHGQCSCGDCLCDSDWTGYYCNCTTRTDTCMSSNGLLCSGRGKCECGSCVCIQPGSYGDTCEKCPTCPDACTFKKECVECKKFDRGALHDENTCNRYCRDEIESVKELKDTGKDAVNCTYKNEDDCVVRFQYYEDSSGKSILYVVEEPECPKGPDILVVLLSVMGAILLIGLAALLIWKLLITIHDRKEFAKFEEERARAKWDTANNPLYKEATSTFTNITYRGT

[3] = test system: platelets from integrin β3 knockout mice; experiment: Flow cytometry assay of platelet activation, platelets from integrin β3 knockout mice; type: cell-based, mouse; settings: β3−/− gel-filtered platelets
Experimental: as §1

Compound | inhibition of CCL5-induced platelet activation [1] | inhibition of Tat-induced platelet activation [1] | Kd [2] | also measured
O=C(O)CN(CCOCCOCCN(CC(=O)O)CC(=O)O)CC(=O)O [EGTA] | completely inhibited; also recorded: completely blocks | completely inhibited |  | 
COC(=O)[C@H](Cc1ccc([N+](=O)[O-])cc1)NC(=O)c1cccc2ccccc12 [SB328437] | completely inhibited | completely inhibited |  | inhibition of thrombin-induced platelet activation ([1]; SB328437 pre-treatment, FIG. 9 in β3−/− platelets): did not inhibit; also recorded: do not inhibit
fibrinogen |  |  | 0.027 µM | 
CCCCC[C@H](O)/C=C/[C@H]1[C@H](O)CC(=O)[C@@H]1CCCCCCC(=O)O [PGE1, prostaglandin E1] | partially inhibited | No significant inhibition |  | inhibition of CCL5-induced platelet activation ([1]; listed as prostaglandin E1 (PGE1)): partially blocks
thrombin |  |  |  | platelet activation in integrin β3 deficient mouse platelets [3]: still induces platelet activation
vitronectin: integrin αVβ3 ligand, literature comparator |  |  | 0.064 µM | 
